{
  "source": "patent US20240226155A1",
  "about": "“Methods and Products for Reducing HIV Reservoirs” (The Regents of the University of California, priority 2023, published 2024)",
  "key": {"[1]": {"test_system": "barcoded HIV NL-HABC", "assay": "Kick and kill: SUW133 and NK cells in NL-HABC-infected mice on ART, then ART interruption", "type": "in vivo, TKO-BLT mice", "experimental": "To determine whether combining a robust LRA with NK cells would effectively diminish the viral reservoir, as NK cells might eliminate cells induced to express virus due to the LRA activity, the following was performed. BLT mice were infected with NL-HABC, followed by ART to halt productive infection (FIG. 21, FIG. 64). Once mice were suppressed on ART, a subset of mice received a single intraperitoneal injection of 2 μg of SUW133 per mouse to reverse latency, followed by an intravenous injection of 5×10^6 allogeneic human NK cells eight hours later. Reactivation and killing of activated infected cells was allowed to occur while the mice were maintained on ART. ART was then discontinued, and mice were concurrently administered one more intravenous injection of 5×10^6 NK cells. A subset of control mice received SUW133, but no NK cell injections. All remaining control mice received DMSO as a vehicle control instead of SUW133. A subset of the mice receiving DMSO also received NK cell injections. Plasma viral loads were monitored after ART interruption for 12.1 weeks (FIG. 22). In these experiments, TKO-BLT mice, which can be robustly infected with HIV and are less susceptible to GVHD compared to NSG-BLT, were used and allowed monitoring the mice after ART interruption for a longer interval.\nRNA was extracted from the barcoded virus supernatant using QIAamp Viral RNA Mini Kit (Qiagen) and from cells using RNeasy MiniKit (Qiagen). cDNA was generated using SuperScript IV First-Strand Synthesis Kit (Invitrogen). The same amount of input RNA that was used for viral load measurement was also used for cDNA synthesis for barcode analysis. The barcode region was amplified by hemi-nested PCR using Phusion High-Fidelity DNA Polymerase (ThermoFisher Scientific). Each RNA molecule was tagged with a Primer ID using methods in the art. Primer ID removal and cDNA purification was performed using an Purelink Quick PCR Purification Kit (Invitrogen) and methods in the art. […] Deep sequencing was performed with Illumina HiSeq3000 PE150. Sequencing depth was 10-fold higher than viral genome copies. Raw sequencing reads were de-multiplexed using the six-nucleotide ID. Sequencing error within the barcode region was corrected by filtering out low quality reads (quality score<30) and un-matched base-pairs between forward and reverse reads. PrimerIDs were used to correct sequencing errors. The frequency of Primer ID reads followed a bi-modal distribution (FIG. 53). The Primer IDs were filtered using the frequency cutoff between the Poisson distribution of errors and normal distribution of real Primer IDs. For each Primer ID, the most frequently observed barcode was called. Similar barcodes were then grouped into clusters. […]"}, "[2]": {"test_system": "HIV", "conditions": "cited from earlier work"}},
  "note": "Entries after “also recorded” stand apart in the source; their conditions may differ.",
  "data": [
    {"compound": "C=C1C[C@H]2C[C@]3(O)O[C@H](C[C@@H](O)CC(=O)O[C@@H](CO)C[C@@H]4C/C(=C\\C(=O)OC)[C@H](OC(=O)CCCCCCC)[C@@](O)(O4)C(C)(C)/C=C/[C@@H](C1)O2)C[C@H](OC(C)=O)C3(C)C", "note": "[SUW133]", "values": [
      {"measurement": "delay to rebound after ART interruption (Kaplan-Meier, log-rank)", "setting": "[1]; combination vs other groups (P=0.012 vs DMSO, 0.0037 vs SUW133, 0.09 vs NK), single agents vs DMSO (P=0.59, 0.47)", "value": "did not demonstrate a significant delay in rebound"},
      {"measurement": "mean unique barcodes per mouse", "setting": "[1]; deep sequencing of rebounding viral RNA, DMSO alone 4.7", "value": 4.1},
      {"measurement": "CD69 expression on peripheral CD4+ T cells in the blood", "setting": "[1]; five days after administration of SUW133", "value": "significant increase; also recorded: significantly elevated"},
      {"measurement": "rebound viremia during the lengthened interval of ART interruption", "setting": "[1]; monitored about 12 weeks", "value": "eventually rebound; also recorded: rebounded"},
      {"measurement": "replication-competent virus from splenocytes in ex vivo cultures", "setting": "[2]; SUW133-treated mice, prior studies", "value": "generated replication-competent virus"},
      {"measurement": "delay of rebound viremia after ART interruption", "setting": "[2]; SUW133 alone, prior studies", "value": "up to two to four weeks"},
      {"measurement": "time of maximal CD69 expression on CD4+ T cells in vivo", "setting": "[2]; post-SUW133 injection, previous report", "value": "approximately one to two days"},
      {"measurement": "time CD69 can be detected on CD4+ T cells in vivo", "setting": "[2]; post-injection, previous report", "value": "up to nine days"},
      {"measurement": "CD4+ T cell activation and latency reversal in vivo", "setting": "[2]; single administration", "value": "activated CD4^+ T cells and reversed latency in vivo"}
    ]}
  ]
}
